Data published in publication PMC9513391, “Crystal structure of the α-ketoglutarate-dependent non-heme iron oxygenase CmnC in capreomycin biosynthesis and its engineering to catalyze hydroxylation of the substrate enantiomer” (Frontiers in Chemistry, 2022).

What was measured:
Type in all cases: binding
[1] = target: T1, CmnC (Saccharothrix mutabilis, UniProt A6YEH4, L136Q/S138G/D249Y); assay: X-ray crystal structure by soaking, […] Å; hydroxylation by LC-MS; settings: 20 mM D-Arg soak, 12 h; activity: α-KG, Fe(II), ascorbate, pH 7.0, 26 °C
T1 construct: cmnC amplified from genomic DNA in pET28a, E. coli BL21 (DE3), Ni-NTA purified; homodimer in crystal and by size-exclusion chromatography
T1 sequence (A6YEH4 1-338 L136Q/S138G/D249Y): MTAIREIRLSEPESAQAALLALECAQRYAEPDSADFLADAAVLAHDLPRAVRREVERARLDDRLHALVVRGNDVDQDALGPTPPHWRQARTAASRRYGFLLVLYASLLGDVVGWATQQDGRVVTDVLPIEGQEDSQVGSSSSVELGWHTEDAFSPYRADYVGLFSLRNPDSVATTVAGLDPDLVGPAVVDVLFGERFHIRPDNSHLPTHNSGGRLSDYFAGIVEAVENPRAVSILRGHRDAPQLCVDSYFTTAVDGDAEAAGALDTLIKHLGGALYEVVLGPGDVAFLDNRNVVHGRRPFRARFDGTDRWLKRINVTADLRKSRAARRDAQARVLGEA

[2] = target: T2, CmnC (Saccharothrix mutabilis, UniProt A6YEH4); assay: X-ray crystal structure by soaking; hydroxylation by LC-MS; settings: 0.1 mM FeCl2 soak
T2 construct: cmnC amplified from genomic DNA in pET28a, E. coli BL21 (DE3), Ni-NTA purified; homodimer in crystal and by size-exclusion chromatography
T2 sequence (A6YEH4 1-338): as the sequence (A6YEH4 1-338 L136Q/S138G/D249Y) above, with Q136L, G138S, Y249D counted along it

[3] = target: T2, CmnC; assay: X-ray crystal structure by soaking; settings: 3 mM α-KG, 0.1 mM FeCl2 soak, 12 h; ternary complex with L-Arg also solved
[4] = target: T1, CmnC; assay: X-ray crystal structure by soaking, […] Å; settings: 3 mM α-KG and 0.1 mM FeCl2 soak, 12 h

N=C(N)NCCC[C@@H](N)C(=O)O [D-Arg]
X-ray crystal structure by soaking, 1.75 Å; hydroxylation by LC-MS [1]: crystal structures of CmnC^L136Q,S138G,D249Y in complex with α-KG (CmnC^triple,α-kg) and D-Arg (CmnC^triple,D−Arg)

N=C(N)NCCC[C@H](N)C(=O)O [L-Arg]
X-ray crystal structure by soaking; hydroxylation by LC-MS ([2]; 3 mM L-Arg, tartrate in α-KG site in the binary complex, ternary complex with α-KG also solved): in complex with L-Arg (CmnC^ L−Arg), L-hArg (CmnC^ L-hArg), α-KG (CmnC^α-kg)

N=C(N)NCCCC[C@H](N)C(=O)O [L-hArg]
X-ray crystal structure by soaking; hydroxylation by LC-MS ([2]; 3 mM L-hArg, tartrate in α-KG site): in complex with L-Arg (CmnC^ L−Arg), L-hArg (CmnC^ L-hArg), α-KG (CmnC^α-kg)

O=C(O)CCC(=O)C(=O)O [α-KG]
X-ray crystal structure by soaking [3]: L-hArg (CmnC^ L-hArg), α-KG (CmnC^α-kg), and L-Arg/α-KG (CmnC^ L−Arg,α-kg)
X-ray crystal structure by soaking, 1.67 Å [4]: crystal structures of CmnC^L136Q,S138G,D249Y in complex with α-KG (CmnC^triple,α-kg)
